Assays:
[1] = system: lysyl oxidase (LOX); test: LOX immunohistochemistry in lung sections of bleomycin-treated mice; assay type: in vivo, mouse; settings: lung sections of mice treated with bleomycin with or without E4
Description: FIG. 12. […] Lung sections of mice treated with BLM with or without E4 were used in immunohistochemistry to detect LOX. The sections shown are control IgG, phosphate buffered saline, bleomycin and bleomycin followed by treatment with E4.
The results also evidenced that E4 exerts its anti-fibrotic effects via multiple pathways. E4 reduces levels of lysyl oxidase (LOX), and enzyme responsible for the cross-linking of collagen, elastin, and other extracellular matrix (ECM) molecules and thus the stabilization of the ECM.

[2] = system: mouse lung; test: Bleomycin-induced pulmonary fibrosis in mice; assay type: in vivo; settings: for fibrosis and Masson Trichrome staining: 10 μg/ml intratracheally, lungs harvested 10 days
Procedure: FIG. 10A-10C. E4 attenuates bleomycin induced lung fibrosis in vivo. A: Sixty μg of bleomycin was administrated intratracheally in combination with DMSO as a vehicle (Bleo) or E-4 (Bleo+E-4; 10 μg/ml). In some mice, E-4 (10 μg/ml) was administered intratracheally (IT) three days following bleomycin treatment (Bleo+E-4L). PBS was used as a vehicle for bleomycin (V). Lungs were harvested 10 days post-treatment. Representative images stained with H&E (left panel) and Masson trichrome (right panel) are representative of 3 independent experiments. Magnification, 100×. […] B: Quantification of acid soluble collagen obtained from mouse lungs treated as in panel C with V, Bleo, Bleo+E-4, and Bleo+E-4L. The levels of collagen are presented as μg/mg (lung) from three independent experiments. Unpaired-t test was used for statistical analysis. * P<0.05. […] For Bleo+E4L, Bleo was administered first, then there was a lag of three days between Bleo and E4 administration).
FIG. 11. E4 attenuates bleomycin induced lung fibrosis in vivo whether administered intraperitoneally (IP) or intratracheally (IT). Bleomycin was administered IT at day 1, and E4 was administered either IP or IT at day 3. Lungs were harvested at day 21. […] Thus E4 is effective at reducing fibrosis irrespective of the route of administration. Results are shown for vehicle alone (V), bleomycin alone (Bleo), bleomycin and E4 administered IP, and bleomycin and E4 administered IT.
E4, a peptide representing the carboxy terminus of human endostatin, can attenuate fibrosis triggered by multiple fibrogenic factors. The anti-fibrotic effects of E4 can be detected whether administered concomitantly with or following the fibrogenic trigger. The efficacy of E4 was confirmed in […] pre-clinical models of fibrosis: a) bleomycin-induced dermal fibrosis in vivo in mouse skin, b) TGF-β induced dermal fibrosis in mouse skin, and c) bleomycin-induced pulmonary fibrosis. E4 peptide or a control peptide (E1; representing the amino terminal region of endostatin) were administered at the same time as TGF-β or bleomycin or 3-4 days following TGF-β or bleomycin. […]
For these studies, fibrosis was assessed by measurement of dermal thickness on H&E skin sections (skin), assessment of collagen levels by Masson Trichrome staining (skin and lung), and measurement of collagen levels by Sircol assay (lung). Furthermore, to confirm the mechanism by which E4 exerts its anti-fibrotic effects, the production of extra-cellular matrix (ECM) components, the levels of enzymes that promote matrix stabilization and thus accumulation and levels of those that degrade ECM components, and levels of transcription factors downstream of the pro-fibrotic triggers were evaluated. Results were assessed using the unpaired t test and the 3-way ANOVA (for the ID1 data).

[3] = system: fibrotic lung fibroblasts from patients with IPF; test: FN and Col1α1 in fibrotic lung fibroblasts without TGF-β stimulation, western blot; assay type: cell-based, human
Description: FIGS. 1A-1F. ECM production in recombinant endostatin- and endostatin-derived peptide-treated fibroblasts in combination with TGF-β stimulation. A: FN and Col1α1 expression in human normal lung fibroblasts (NL) treated with vehicle (V), rE alone, or both with prior TGF-β stimulation. Proteins were detected western blot. GAPDH was used as a loading control for lysates. B: FN and Col1α1 expression of endostatin polypeptide-treated lung fibroblasts following TGF-β stimulation in primary pulmonary fibroblasts from a healthy control, a patient with SSc, and a patient with IPF. C: Graphical summary of FN and Col1α1 expression in lung fibroblasts obtained using fibroblasts from 4 healthy controls (NL), 3 patients with SSc, and 3 patients with IPF. Intensity of bands was normalized to that of GAPDH and expressed as a ratio to Vehicle (V). Paired-t test was used for statistical analysis. * P<0.04, ** P<0.01. D: Representative result of FN and Col1α1 levels in human skin fibroblasts obtained from a patient with morphea and a patient with SSc. E: Representative result of FN and Col1α1 expression in fibrotic fibroblasts obtained from a patients with IPF treated with V, 5 μg/ml of rE, or endostatin polypeptides alone (left). IPF fibroblasts were treated with different concentrations (5, 10, and 20 μg/ml) of E4. DMSO (V) was added in a volume equivalent to that in the lane corresponding to 20 μg/ml of E4 (right). […]
Cellular lysates were obtained from cultured fibroblasts as previously described (Pilewski et al., Am J Pathol 2005; 166:399-407). […] Cellular lysates were analyzed by western blot. Signals were detected following incubation with horseradish peroxidase-conjugated secondary antibody and chemiluminescence (Perkin Elmer Life Sciences, Inc., Boston, Mass.). The intensity of individual bands with expected molecular sizes was semi-quantitatively analyzed using the image/J® software available at on the internet (/rsb.info.nih.gov/ij/index.html), and normalized to individual GAPDH intensity. […]

[4] = no TGF-β, 5, 10 and 20 μg/ml, vs vehicle control

- levels of lysyl oxidase (LOX) [1]: reduces
Substance: H-^133SYCETWRTEAPSATGQASSLLGGRLLGQSAASCHHAYIVLCIENSFMT^180-CONH2 (H-SYCETWRTEAPSATGQASSLLGGRLLGQSAASCHHAYIVLCIENSFMT-NH2; cysteine pairing not given here; UniProt P39060 1704-1751, looked up, fragment) [E4, amino acids 133-180 of human endostatin; differs from E3 by the presence of a carboxy-terminal amide]
- fibrosis and Masson Trichrome staining ([2]; concomitantly with bleomycin): marked reduction
- fibrosis and Masson Trichrome staining ([2]; three days following bleomycin): marked reduction
- bleomycin induced lung fibrosis ([2]; intraperitoneal at day 3, lungs harvested day 21): significant attenuation
- bleomycin induced lung fibrosis ([2]; intratracheal at day 3, lungs harvested day 21): significant attenuation
- FN and Col1α1 levels ([3]; no TGF-β stimulation, peptide alone): decreased
- Col1α1 levels [3, 4]: dose-dependently reduced
- FN levels [3, 4]: modest effect

Source: US10709769B2, “Use of endostatin peptides for the treatment of fibrosis” (University of Pittsburgh—Of the Commonwealth System of …, priority 2009, dated 2020)
